Each structure is given as a SMILES string.

The results in this text go back to US20180155344A1, “TRICYCLIC PIPERIDINE COMPOUNDS” (ACTELION PHARMACEUTICALS LTD, priority 2015, published 2018).

The assay deals with T1, human TPH1 (Homo sapiens, UniProt P17752).
T1 sequence (P17752 1-444): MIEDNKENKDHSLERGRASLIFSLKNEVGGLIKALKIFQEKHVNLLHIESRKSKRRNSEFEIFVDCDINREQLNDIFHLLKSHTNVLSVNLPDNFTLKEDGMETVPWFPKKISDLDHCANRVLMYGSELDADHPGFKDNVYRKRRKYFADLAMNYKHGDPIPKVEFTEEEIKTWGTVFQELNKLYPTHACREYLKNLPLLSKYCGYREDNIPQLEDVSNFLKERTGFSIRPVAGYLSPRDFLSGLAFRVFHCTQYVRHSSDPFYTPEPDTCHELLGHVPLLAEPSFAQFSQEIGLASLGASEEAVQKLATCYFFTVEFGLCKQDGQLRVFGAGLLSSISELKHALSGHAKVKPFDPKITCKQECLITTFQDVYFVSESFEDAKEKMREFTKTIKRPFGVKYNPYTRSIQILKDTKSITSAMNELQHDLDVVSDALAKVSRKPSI
As to the kind of experiment: biochemical. A digest of the protocol: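 Inhibition is derived from 5-hydroxy-L-tryptophan fluorescence (540 nm emission, 300 nm excitation) after perchloric acid stop, relative to DMSO vehicle. Recombinant full-length human enzyme (40-80 nM) reacts with 40 μM tryptophan plus 100 μM methyltetrahydropterin, pH 7.6 Tris/DTT/catalase, 15° C, 60 min.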
`CS(=O)(=O)Nc1ccc(OCC(=O)N2CCc3nc4ccccn4c3C2c2ccc(C#N)cc2F)c(Cl)n1` (stereo not shown) [Example 1.20.1, N-(6-chloro-5-(2-(1-(4-cyano-2-fluorophenyl)-3,4-dihydroimidazo[1,2-a:5,4-c′]dipyridin-2(1H)-yl)-2-oxoethoxy)pyridin-2-yl)methanesulfonamide]: the IC50 was determined as 98 nM.
On to `O=C(NC1CC1)c1ccc(OCC(=O)N2CCc3nc4ccccn4c3C2c2ccc(OC(F)(F)F)cc2F)c(Cl)n1` (stereo not shown) [Example 1.19.2, 6-chloro-N-cyclopropyl-5-(2-(1-(2-fluoro-4-(trifluoromethoxy)phenyl)-3,4-dihydroimidazo[1,2-a:5,4-c′]dipyridin-2(1H)-yl)-2-oxoethoxy)picolinamide], for which the half-maximal inhibitory concentration (IC50) was found to be 18 nM.
As for `CS(=O)(=O)Nc1ccc(OCC(=O)N2CCc3nc4cc(C(F)(F)F)ccn4c3C2c2ccc(Cl)cc2F)c(Cl)n1` (stereo not shown) [Example 3.4.7, N-(6-chloro-5-(2-(1-(4-chloro-2-fluorophenyl)-7-(trifluoromethyl)-3,4-dihydroimidazo[1,2-a:5,4-c′]dipyridin-2(1H)-yl)-2-oxoethoxy)pyridin-2-yl)methanesulfonamide], the IC50 stood at 5 nM.
For the compound `COc1ccc(C2c3c(nc4cc(C(F)(F)F)ccn34)CCN2C(=O)COc2cccnc2Cl)cc1` (stereo not shown) [Example 3.24.2, 2-((2-chloropyridin-3-yl)oxy)-1-(1-(4-methoxyphenyl)-7-(trifluoromethyl)-3,4-dihydroimidazo[1,2-a:5,4-c′]dipyridin-2(1H)-yl)ethan-1-one], the half-inhibitory concentration (IC50) was 429 nM.
Take `O=C(COc1ccc(N2CCOCC2)cc1Cl)N1CCc2nc3cccnn3c2C1c1ccc(C2CC2)cc1F` (stereo not shown) [Example 16.1.1, 2-(2-chloro-4-morpholinophenoxy)-1-(9-(4-cyclopropyl-2-fluorophenyl)-6,9-dihydropyrido[4′,3′:4,5]imidazo[1,2-b]pyridazin-8(7H)-yl)ethan-1-one]: the concentration for half-maximal inhibition (IC50) came out at 19 nM.
The compound `COc1ccc(C2c3c(nc4ccc(C(F)(F)F)cn34)CCN2C(=O)COc2ccc3ccccc3c2)cc1OC` (stereo not shown) [Example 12.1.1, 1-(1-(3,4-dimethoxyphenyl)-8-(trifluoromethyl)-3,4-dihydroimidazo[1,2-a:5,4-c′]dipyridin-2(1H)-yl)-2-(naphthalen-2-yloxy)ethan-1-one] gave an IC50 of 183 nM.
`CCc1cc(C)c(C(=O)NC)cc1OCC(=O)N1CCc2nc3ccccn3c2C1c1ccc(OC)c(OC)c1` (stereo not shown) [Example 1.1.12, 5-(2-(1-(3,4-dimethoxyphenyl)-3,4-dihydroimidazo[1,2-a:5,4-c′]dipyridin-2(1H)-yl)-2-oxoethoxy)-4-ethyl-N,2-dimethylbenzamide] gave an IC50 of 141 nM.
Turning to `COc1ccc(C2c3c(nc4cc(C(F)(F)F)ccn34)CCN2C(=O)COc2ccc(CN3CCOCC3)nc2Cl)cc1OC` (stereo not shown) [Example 3.1.27, 2-((2-chloro-6-(morpholinomethyl)pyridin-3-yl)oxy)-1-(1-(3,4-dimethoxyphenyl)-7-(trifluoromethyl)-3,4-dihydroimidazo[1,2-a:5,4-c′]dipyridin-2(1H)-yl)ethan-1-one], the IC50 is 84 nM.
Regarding `COc1ccc(C2c3c(nc4cc(C(F)(F)F)ccn34)CCN2C(=O)COc2ccc(C(F)(F)F)cc2Cl)cc1OC` (stereo not shown) [Example 3.1.3, 2-(2-chloro-4-(trifluoromethyl)phenoxy)-1-(1-(3,4-dimethoxyphenyl)-7-(trifluoromethyl)-3,4-dihydroimidazo[1,2-a:5,4-c′]dipyridin-2(1H)-yl)ethan-1-one], half-maximal inhibition (IC50) required 36 nM.
Turning to `Cc1ccc(C2c3c(nc4cc(C(F)(F)F)ccn34)CCN2C(=O)COc2ccc(CN3CCOCC3)cc2Cl)cn1` (stereo not shown) [Example 3.38.2, 2-(2-chloro-4-(morpholinomethyl)phenoxy)-1-(1-(6-methylpyridin-3-yl)-7-(trifluoromethyl)-3,4-dihydroimidazo[1,2-a:5,4-c′]dipyridin-2(1H)-yl)ethan-1-one], half-maximal inhibition (IC50) required 92 nM.
For `COc1ccc(C2c3c(nc4cc(Cl)ccn34)CCN2C(=O)COc2ccc(Cl)cc2Cl)cc1OC` (stereo not shown) [Example 2.1.6, 1-(7-chloro-1-(3,4-dimethoxyphenyl)-3,4-dihydroimidazo[1,2-a:5,4-c′]dipyridin-2(1H)-yl)-2-(2,4-dichlorophenoxy)ethan-1-one] the value was 53 nM; for `CCc1nc(NS(C)(=O)=O)ccc1OCC(=O)N1CCc2nc3ccc(F)cn3c2C1c1ccc(Cl)cc1F` (stereo not shown) [Example 11.2.2, N-(5-(2-(1-(4-chloro-2-fluorophenyl)-8-fluoro-3,4-dihydroimidazo[1,2-a:5,4-c′]dipyridin-2(1H)-yl)-2-oxoethoxy)-6-ethylpyridin-2-yl)methanesulfonamide], 34 nM.
As to `COc1ccc(C2c3c(nc4cc(Cl)ccn34)CCN2C(=O)COc2ccc3ccccc3c2)cc1OCCO` (stereo not shown) [Example 2.13.1, 1-(7-chloro-1-(3-(2-hydroxyethoxy)-4-methoxyphenyl)-3,4-dihydroimidazo[1,2-a:5,4-c′]dipyridin-2(1H)-yl)-2-(naphthalen-2-yloxy)ethan-1-one], the IC50 was 34 nM.
To `Cc1ccc(C2c3c(nc4ccccn34)CCN2C(=O)COc2ccc(Cl)cc2Cl)cc1C` (stereo not shown) [Example 1.10.1, 2-(2,4-dichlorophenoxy)-1-(1-(3,4-dimethylphenyl)-3,4-dihydroimidazo[1,2-a:5,4-c′]dipyridin-2(1H)-yl)ethan-1-one] belongs 451 nM.
The compound `CS(=O)(=O)Nc1ccc(OCC(=O)N2CCc3nc4cc(Cl)ccn4c3C2c2ccc(Cl)cc2F)c(Cl)n1` (stereo not shown) [Example 2.4.1, N-(6-chloro-5-(2-(7-chloro-1-(4-chloro-2-fluorophenyl)-3,4-dihydroimidazo[1,2-a:5,4-c′]dipyridin-2(1H)-yl)-2-oxoethoxy)pyridin-2-yl)methanesulfonamide] gave an IC50 of 8 nM.
To `CCc1cc(Br)ccc1OCC(=O)N1CCc2nc3cc(C(F)(F)F)ccn3c2C1c1ccc(OC)c(OC)c1` (stereo not shown) [Example 3.1.31, 2-(4-bromo-2-ethylphenoxy)-1-(1-(3,4-dimethoxyphenyl)-7-(trifluoromethyl)-3,4-dihydroimidazo[1,2-a:5,4-c′]dipyridin-2(1H)-yl)ethan-1-one] belongs 43 nM; to `Cc1ccc(C2c3c(nc4cc(C(F)(F)F)ccn34)CCN2C(=O)COc2ccc3ccccc3c2)cc1C` (stereo not shown) [Example 3.10.1, 1-(1-(3,4-dimethylphenyl)-7-(trifluoromethyl)-3,4-dihydroimidazo[1,2-a:5,4-c′]dipyridin-2(1H)-yl)-2-(naphthalen-2-yloxy)ethan-1-one], 33 nM.
Compound `O=C(COc1ccc(N2CCOCC2)cc1Cl)N1CCc2nc3cc(C(F)(F)F)ccn3c2C1c1ccc(C2CC2)cc1F` (stereo not shown) [Example 3.5.2, 2-(2-chloro-4-morpholinophenoxy)-1-(1-(4-cyclopropyl-2-fluorophenyl)-7-(trifluoromethyl)-3,4-dihydroimidazo[1,2-a:5,4-c′]dipyridin-2(1H)-yl)ethan-1-one] returned a half-maximal inhibitory concentration (IC50) of 6 nM.
`COc1ccc([C@@H]2c3c(nc4cc(Cl)ccn34)CCN2C(=O)COc2ccc(N3CCOCC3)cc2Cl)cn1` [Example 2.5.1, 1-((1R)-7-chloro-1-(6-methoxypyridin-3-yl)-3,10a-dihydroimidazo[1,2-a:5,4-c′]dipyridin-2(1H)-yl)-2-(2-chloro-4-morpholinophenoxy)ethan-1-one] had an IC50 of 89 nM.
For `O=C(COc1ccc(N2CCOCC2)nc1Cl)N1CCc2nc3cccnn3c2C1c1ncc(C2CC2)cc1F` (stereo not shown) [Example 16.2.1, 2-((2-chloro-6-morpholinopyridin-3-yl)oxy)-1-(9-(5-cyclopropyl-3-fluoropyridin-2-yl)-6,9-dihydropyrido[4′,3′:4,5]imidazo[1,2-b]pyridazin-8(7H)-yl)ethan-1-one] the value was 14 nM; for `COC(C)(C)c1ccc(C2c3c(nc4ccccn34)CCN2C(=O)COc2ccc(C(=O)NC3CC3)nc2Cl)c(F)c1` (stereo not shown) [Example 1.17.1, 6-chloro-N-cyclopropyl-5-(2-(1-(2-fluoro-4-(2-methoxypropan-2-yl)phenyl)-3,4-dihydroimidazo[1,2-a:5,4-c′]dipyridin-2(1H)-yl)-2-oxoethoxy)picolinamide], 140 nM.
Compound `O=C(COc1cccnc1C(F)(F)F)N1CCc2nc3ccccn3c2C1c1ccc(C2CC2)cc1F` (stereo not shown) [Example 1.5.6, 1-(1-(4-cyclopropyl-2-fluorophenyl)-3,4-dihydroimidazo[1,2-a:5,4-c′]dipyridin-2(1H)-yl)-2-((2-(trifluoromethyl)pyridin-3-yl)oxy)ethan-1-one] yielded an IC50 of 13 nM.
In turn, `COc1ccc(C2c3c(nc4cc(Cl)ccn34)CCN2C(=O)COc2ccc3ccccc3c2)cc1OC[C@H](O)CO` (stereo partly drawn) [Example 2.10.1, 1-(7-chloro-1-(3-((R)-2,3-dihydroxypropoxy)-4-methoxyphenyl)-3,4-dihydroimidazo[1,2-a:5,4-c′]dipyridin-2(1H)-yl)-2-(naphthalen-2-yloxy)ethan-1-one] showed a 50% inhibitory concentration (IC50) of 34 nM.
For `COc1ccc(C2c3c(nc4cc(Cl)ccn34)CCN2C(=O)COc2ccc3ccccc3c2)cc1OCCCO` (stereo not shown) [Example 2.12.1, 1-(7-chloro-1-(3-(3-hydroxypropoxy)-4-methoxyphenyl)-3,4-dihydroimidazo[1,2-a:5,4-c′]dipyridin-2(1H)-yl)-2-(naphthalen-2-yloxy)ethan-1-one] the value was 22 nM; for `CCc1c(OCC(=O)N2CCc3nc4ccccn4c3C2c2ccc(OC)c(OC)c2)ccc2ccccc12` (stereo not shown) [Example 1.1.7, 1-(1-(3,4-dimethoxyphenyl)-3,4-dihydroimidazo[1,2-a:5,4-c′]dipyridin-2(1H)-yl)-2-((1-ethylnaphthalen-2-yl)oxy)ethan-1-one], 4 nM.

Broadly, the IC50 is the concentration needed to halve the response being measured.
